Results as given in patent US20250346597A1, “CONDENSED HETEROCYCLIC COMPOUNDS AS INHIBITOR OF DIACYLGLYCEROL KINASES” (BEONE MEDICINES I GMBH, priority 2023, published 2025).

How the values were obtained:
DGKζ = DGKζ (Homo sapiens (Human), UniProt Q13574); assay: Biochemical DGK IC50 assay (ADP-Glo, lipid micelle substrate), DGKζ; conditions: full length DGKζ 0.5 nM, ATP 140 μM, DAG 80 μM
Outline: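 Full-length human His-TEV-tagged DGKζ, expressed in Sf9 cells and purified, was run at room temperature on DAG/PS lipid micelles in 50 mM HEPES, 10 mM MgCl2, 0.01 mM CaCl2 buffer. After 1 h reaction, ADP formed was detected by ADP-Glo luminescence. IC50s came from inhibition across increasing compound concentrations.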

DGKα = DGKα (Homo sapiens (Human), UniProt P23743); assay: Biochemical DGK IC50 assay (ADP-Glo, lipid micelle substrate), DGKα; conditions: full length DGKα […], ATP 140 μM, DAG 80 μM; also: full length DGKα 7.5 nM
Outline: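 Full-length human DGKα assayed by ADP-Glo with DAG/PS lipid micelle substrate at room temperature in 50 mM HEPES, 10 mM MgCl2, 0.01% BSA, 0.1 mM Na3VO4, 0.005% Tween-20, 0.01 mM CaCl2.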

DGKα, sequence (P23743 whole entry): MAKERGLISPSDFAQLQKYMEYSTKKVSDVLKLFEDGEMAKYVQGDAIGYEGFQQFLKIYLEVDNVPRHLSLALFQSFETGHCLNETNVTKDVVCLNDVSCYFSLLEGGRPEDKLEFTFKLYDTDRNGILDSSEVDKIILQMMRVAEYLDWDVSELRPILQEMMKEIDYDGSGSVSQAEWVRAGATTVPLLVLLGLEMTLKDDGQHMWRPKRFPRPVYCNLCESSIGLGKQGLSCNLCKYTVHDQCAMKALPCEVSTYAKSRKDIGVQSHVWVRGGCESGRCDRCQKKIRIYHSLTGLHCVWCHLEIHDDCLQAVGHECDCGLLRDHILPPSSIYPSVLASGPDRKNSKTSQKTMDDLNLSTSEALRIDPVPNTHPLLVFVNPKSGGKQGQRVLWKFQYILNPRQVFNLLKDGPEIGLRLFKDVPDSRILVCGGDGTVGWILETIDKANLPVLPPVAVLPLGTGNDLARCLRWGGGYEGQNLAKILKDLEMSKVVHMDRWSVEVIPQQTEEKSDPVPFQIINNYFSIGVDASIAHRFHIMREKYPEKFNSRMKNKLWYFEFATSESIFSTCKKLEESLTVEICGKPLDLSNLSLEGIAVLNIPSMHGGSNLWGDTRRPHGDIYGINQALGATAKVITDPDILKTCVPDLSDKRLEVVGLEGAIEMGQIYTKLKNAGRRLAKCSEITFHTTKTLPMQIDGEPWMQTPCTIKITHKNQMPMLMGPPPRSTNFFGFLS
DGKζ, sequence (Q13574 other isoform, or with tags, fused parts or gaps): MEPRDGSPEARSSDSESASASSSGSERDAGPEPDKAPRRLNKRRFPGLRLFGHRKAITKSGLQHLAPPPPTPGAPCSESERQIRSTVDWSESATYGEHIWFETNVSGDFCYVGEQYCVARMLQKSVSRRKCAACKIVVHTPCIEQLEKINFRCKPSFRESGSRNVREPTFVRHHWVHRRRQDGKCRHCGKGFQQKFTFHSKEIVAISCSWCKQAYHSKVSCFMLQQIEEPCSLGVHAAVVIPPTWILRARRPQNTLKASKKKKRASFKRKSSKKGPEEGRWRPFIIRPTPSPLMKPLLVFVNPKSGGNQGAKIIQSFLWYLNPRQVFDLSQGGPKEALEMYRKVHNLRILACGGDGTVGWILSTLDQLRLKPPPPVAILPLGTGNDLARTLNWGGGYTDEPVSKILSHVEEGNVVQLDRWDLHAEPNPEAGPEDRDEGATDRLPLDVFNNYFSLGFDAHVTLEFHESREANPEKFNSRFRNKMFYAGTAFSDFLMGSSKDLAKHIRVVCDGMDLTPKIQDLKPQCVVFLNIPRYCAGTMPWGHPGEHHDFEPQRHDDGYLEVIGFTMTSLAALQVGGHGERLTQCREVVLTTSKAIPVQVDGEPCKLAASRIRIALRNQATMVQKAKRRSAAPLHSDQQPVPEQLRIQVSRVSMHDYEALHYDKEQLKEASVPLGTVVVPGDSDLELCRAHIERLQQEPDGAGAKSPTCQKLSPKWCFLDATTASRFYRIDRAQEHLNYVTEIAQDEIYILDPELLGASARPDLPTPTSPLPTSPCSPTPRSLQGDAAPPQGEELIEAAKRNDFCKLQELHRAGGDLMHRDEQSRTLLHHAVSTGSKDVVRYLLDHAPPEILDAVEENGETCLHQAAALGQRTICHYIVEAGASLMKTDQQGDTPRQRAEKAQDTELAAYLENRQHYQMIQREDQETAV

Compound	IC50 (DGKζ) [µM]	IC50 (DGKα) [µM]
CC[C@H]1CN(C(C)c2ccc3cc(C(F)F)sc3n2)[C@H](CC)CN1c1cc(=O)n(C)c2cn(CC#N)nc12 (single isomer, unassigned) [Compound A144a]	1.3	0.27
CC[C@H]1CN(C(C)c2ccc3cc(C(F)F)sc3n2)[C@H](CC)CN1c1cc(=O)n(C)c2cn(CC#N)nc12 (single isomer, unassigned) [Compound A144b]	0.135	0.018
CC[C@H]1CN(C(C)c2ccc3nc(COC)sc3c2)[C@H](CC)CN1c1cc(=O)n(C)c2cn(CC#N)nc12 (single isomer, unassigned) [Compound A145a]	0.047	0.545
CC[C@H]1CN(C(C)c2ccc3nc(COC)sc3c2)[C@H](CC)CN1c1cc(=O)n(C)c2cn(CC#N)nc12 (single isomer, unassigned) [Compound A145b]	0.939	3.35
CC[C@H]1CN(C(C)c2ccc3nc(OC4CC4)sc3n2)[C@H](CC)CN1c1cc(=O)n(C)c2cn(CC#N)nc12 (single isomer, unassigned) [Compound A146a]	1.75	2.4
CC[C@H]1CN(C(C)c2ccc3nc(OC4CC4)sc3n2)[C@H](CC)CN1c1cc(=O)n(C)c2cn(CC#N)nc12 (single isomer, unassigned) [Compound A146b]	0.104	0.205
CC[C@H]1CN(C(C)c2ccc3nc(OCCF)sc3n2)[C@H](CC)CN1c1cc(=O)n(C)c2cn(CC#N)nc12 (single isomer, unassigned) [Compound A147a]	0.152	0.18
CC[C@H]1CN(C(C)c2ccc3nc(OCCF)sc3n2)[C@H](CC)CN1c1cc(=O)n(C)c2cn(CC#N)nc12 (single isomer, unassigned) [Compound A147b]	1.51	1.57
CC[C@H]1CN(C(C)c2ccc3cc(C(F)F)sc3n2)[C@H](CC)CN1c1nc(=O)n(C)c2cn(CC#N)nc12 (single isomer, unassigned) [Compound A148a]	2.31	1.28
CC[C@H]1CN(C(C)c2ccc3cc(C(F)F)sc3n2)[C@H](CC)CN1c1nc(=O)n(C)c2cn(CC#N)nc12 (single isomer, unassigned) [Compound A148b]	0.045	0.036
CC[C@H]1CN(C(C)c2ccc3nc(C)cn3n2)[C@H](CC)CN1c1cc(=O)n(C)c2cn(CC#N)nc12 (single isomer, unassigned) [Compound A149a]	2.72	1.11
CC[C@H]1CN(C(C)c2ccc3nc(C)cn3n2)[C@H](CC)CN1c1cc(=O)n(C)c2cn(CC#N)nc12 (single isomer, unassigned) [Compound A149b]	0.093	0.043
CC[C@H]1CN(C(C)c2ccc3nc(C)cn3n2)[C@H](CC)CN1c1nc(=O)n(C)c2cn(CC#N)nc12 (single isomer, unassigned) [Compound A150a]	> 10	7.14
CC[C@H]1CN(C(C)c2ccc3nc(C)cn3n2)[C@H](CC)CN1c1nc(=O)n(C)c2cn(CC#N)nc12 (single isomer, unassigned) [Compound A150b]	0.267	0.124
CC[C@H]1CN(C(C)c2ccn3ncc(C)c3n2)[C@H](CC)CN1c1cc(=O)n(C)c2cn(CC#N)nc12 (single isomer, unassigned) [Compound A151a]	4.61	7.32
CC[C@H]1CN(C(C)c2ccn3ncc(C)c3n2)[C@H](CC)CN1c1cc(=O)n(C)c2cn(CC#N)nc12 (single isomer, unassigned) [Compound A151b]	0.0075	0.156
CC[C@H]1CN(C(C)c2ccn3nc(C)cc3n2)[C@H](CC)CN1c1cc(=O)n(C)c2cn(CC#N)nc12 (single isomer, unassigned) [Compound A152a]	3.09	1.91
CC[C@H]1CN(C(C)c2ccn3nc(C)cc3n2)[C@H](CC)CN1c1cc(=O)n(C)c2cn(CC#N)nc12 (single isomer, unassigned) [Compound A152b]	0.0655	0.045
CCc1cn2nc(C(C)N3C[C@H](CC)N(c4cc(=O)n(C)c5cn(CC#N)nc45)C[C@H]3CC)ccc2n1 (single isomer, unassigned) [Compound A153a]	> 10	2.72
CCc1cn2nc(C(C)N3C[C@H](CC)N(c4cc(=O)n(C)c5cn(CC#N)nc45)C[C@H]3CC)ccc2n1 (single isomer, unassigned) [Compound A153b]	0.195	0.072
CC[C@H]1CN(C(C)c2ccn3nccc3n2)[C@H](CC)CN1c1cc(=O)n(C)c2cn(CC#N)nc12 (single isomer, unassigned) [Compound A154a]	> 10	0.505
CC[C@H]1CN(C(C)c2ccn3nccc3n2)[C@H](CC)CN1c1cc(=O)n(C)c2cn(CC#N)nc12 (single isomer, unassigned) [Compound A154b]	0.055	0.012

Compound	IC50 (DGKζ) [µM]	IC50 (DGKα) [µM]
Cc1cc2nc(C(C)N3C[C@H](C)N(c4cc(=O)n(C)c5cn(CC#N)nc45)C[C@H]3C)ccc2s1 (single isomer, unassigned) [Compound A155a]	0.02	1.14
Cc1cc2nc(C(C)N3C[C@H](C)N(c4cc(=O)n(C)c5cn(CC#N)nc45)C[C@H]3C)ccc2s1 (single isomer, unassigned) [Compound A155b]	1.97	0.139
CC[C@H]1CN(C(C)c2ccn3nc(C)c(C)c3n2)[C@H](CC)CN1c1cc(=O)n(C)c2cn(CC#N)nc12 (single isomer, unassigned) [Compound A156a]	5.13	> 10
CC[C@H]1CN(C(C)c2ccn3nc(C)c(C)c3n2)[C@H](CC)CN1c1cc(=O)n(C)c2cn(CC#N)nc12 (single isomer, unassigned) [Compound A156b]	0.023	0.31
CC[C@H]1CN(C(C)c2ccn3nc(C)cc3n2)[C@H](CC)CN1c1nc(=O)n(C)c2cn(CC#N)nc12 (single isomer, unassigned) [Compound A157a]	> 10	> 10
CC[C@H]1CN(C(C)c2ccn3nc(C)cc3n2)[C@H](CC)CN1c1nc(=O)n(C)c2cn(CC#N)nc12 (single isomer, unassigned) [Compound A157b]	0.166	0.183
CC[C@H]1CN(C(C)c2ccn3nc(F)cc3n2)[C@H](CC)CN1c1cc(=O)n(C)c2cn(CC#N)nc12 (single isomer, unassigned) [Compound A158a]	> 10	0.33
CC[C@H]1CN(C(C)c2ccn3nc(F)cc3n2)[C@H](CC)CN1c1cc(=O)n(C)c2cn(CC#N)nc12 (single isomer, unassigned) [Compound A158b]	0.091	0.021
CC[C@H]1CN(C(C)c2ccn3nccc3c2)[C@H](CC)CN1c1nc(=O)n(C)c2cn(CC#N)nc12 (single isomer, unassigned) [Compound A159a]	0.056	0.038
CC[C@H]1CN(C(C)c2ccn3nccc3c2)[C@H](CC)CN1c1nc(=O)n(C)c2cn(CC#N)nc12 (single isomer, unassigned) [Compound A159b]	1.12	0.04
CC[C@H]1CN(C(C)c2ccn3nc(C)c(F)c3n2)[C@H](CC)CN1c1cc(=O)n(C)c2cn(CC#N)nc12 (single isomer, unassigned) [Compound A160a]	4.12	5.97
CC[C@H]1CN(C(C)c2ccn3nc(C)c(F)c3n2)[C@H](CC)CN1c1cc(=O)n(C)c2cn(CC#N)nc12 (single isomer, unassigned) [Compound A160b]	0.015	0.047
CC[C@H]1CN(C(C)c2ccn3ncc(F)c3n2)[C@H](CC)CN1c1cc(=O)n(C)c2cn(CC#N)nc12 (single isomer, unassigned) [Compound A161a]	> 10	> 10
CC[C@H]1CN(C(C)c2ccn3ncc(F)c3n2)[C@H](CC)CN1c1cc(=O)n(C)c2cn(CC#N)nc12 (single isomer, unassigned) [Compound A161b]	0.018	0.032
CC[C@H]1CN(C(C)c2ccn3nc(C)cc3c2)[C@H](CC)CN1c1cc(=O)n(C)c2cn(CC#N)nc12 (single isomer, unassigned) [Compound A162a]	0.051	0.104
CC[C@H]1CN(C(C)c2ccn3nc(C)cc3c2)[C@H](CC)CN1c1cc(=O)n(C)c2cn(CC#N)nc12 (single isomer, unassigned) [Compound A162b]	3.27	2.43
CC[C@H]1CN(C(C)c2ccn3nccc3n2)[C@H](CC)CN1c1nc(=O)n(C)c2cn(CC#N)nc12 (single isomer, unassigned) [Compound A163a]	> 10	1.9
CC[C@H]1CN(C(C)c2ccn3nccc3n2)[C@H](CC)CN1c1nc(=O)n(C)c2cn(CC#N)nc12 (single isomer, unassigned) [Compound A163b]	0.426	0.071
CC[C@H]1CN(C(C)c2ccn3ncc(F)c3n2)[C@H](CC)CN1c1nc(=O)n(C)c2cn(CC#N)nc12 (single isomer, unassigned) [Compound A164a]	> 10	7.3
CC[C@H]1CN(C(C)c2ccn3ncc(F)c3n2)[C@H](CC)CN1c1nc(=O)n(C)c2cn(CC#N)nc12 (single isomer, unassigned) [Compound A164b]	0.088	0.134
CC[C@H]1CN(C(C)c2ccn3ncc(F)c3c2)[C@H](CC)CN1c1cc(=O)n(C)c2cn(CC#N)nc12 (single isomer, unassigned) [Compound A165a]	0.012	0.096
